Data set [1] is described as follows: in vitro. The note with it: human.
In a further data set the test system is VEEV (TC-83). Put plainly: microbe, parasite or virus in culture. The format is cell-based, Venezuelan Equine Encephalitis virus. The note with it: for EC50: read-out: VEEV Inhibition EC50; for EC90: read-out: VEEV Inhibition EC90.
Data set [2] in a line: in vitro. Particulars: human. The source holds these as a separate data set.
The subject of the next data set is DENV2. The data set is described as follows: microbe, parasite or virus in culture. The data set is classed as cell-based, dengue virus (DENV2, New Guinea C strain). Particulars: for EC50: read-out: DENV Inhibition EC50; for EC90: read-out: DENV Inhibition EC90.
Data set [3] in a line: in vitro. The note with it: African green monkey.
Another data set has as its system DENV. Also noted: method as in PMID 28240606, PMID 22448770, PMID 26039671, PMID 19223625, PMID 32631507. Particulars: serotype 2; erlotinib in Huh7 (Figure 2); ref [14],[29],[30],[31],[32],[33]; read-out: DENV EC50 (previously reported); cited from earlier work.
The mark [4] stands for this setting: Venezuelan equine encephalitis virus, U-87 MG, 18 h.
The mark [5] stands for this setting: Dengue virus, DENV2, Huh-7, 48 h.

Like-named read-outs stand apart in the source and are kept apart here. Some results are limits rather than exact numbers.

For the molecule `Oc1cccc(Nc2ccnc3ccc(Br)cc23)c1` [Compound 12, 3-((6-bromoquinolin-4-yl)amino)phenol], the melting point (in general, the temperature, or range, at which the solid turns liquid) is over 300 °C. Besides, in the data set “in vitro [1]”, the CC50 was over 10 µM. Besides, in the data set on VEEV (TC-83) (setting [4]), the EC50 (commonly the concentration giving half of the maximal effect) stood at 9.9 µM and the EC90 (in general, the point of the concentration-response curve where the effect stands at 90%) is over 10 µM. Also, the CC50 in the data set “in vitro [2]” was over 10 µM. Also, in the data set on DENV2 (setting [5]), the EC50 was 0.63 µM and the EC90 was found to be 3.2 µM. Besides, the CC50 in “in vitro [3]” is over 10 µM.

On to `C#Cc1cccc(Nc2ncnc3cc(OCCOC)c(OCCOC)cc23)c1` [Erlotinib, erlotinib], for which the 50% effective concentration (EC50) in the data set with DENV is 6.5 µM.

Regarding `CNc1cccc(Nc2ccnc3ccc(Br)cc23)c1` [Compound 21, N^1-(6-bromoquinolin-4-yl)-N^3-methylbenzene-1,3-diamine], in the data set with VEEV (TC-83), the “reduction in potency against VEEV relative to DENV” value is given as 4-8 fold. In addition, the EC50 with VEEV (TC-83) (setting [4]) amounted to 1.03 µM; in the data set with VEEV (TC-83) it was 1 µM; with DENV2 (setting [5]) it was 0.24 µM. The EC90 with VEEV (TC-83) (setting [4]) is 10.7 µM; in the data set with VEEV (TC-83) it was over 10 µM; with DENV2 (setting [5]) it was 0.69 µM. For the same molecule, the “selectivity index window (CC50/EC50, DENV, Huh7)” value in the data set with DENV2 amounted to 22 fold. The CC50 in “in vitro [3]” was over 10 µM.

On to `Clc1ccc(-c2ccc(-c3nc(NCc4cccnc4)nc4ccccc34)s2)cc1` [Compound 2], for which the EC50 in the data set on DENV is 0.07 µM.

For `O=C1NCc2ccc(Nc3ccnc4ccc(Br)cc34)cc21` [Compound 52, 6-((6-bromoquinolin-4-yl)amino)isoindolin-1-one], the CC50 at 48 h in the data set “in vitro [1]” is over 10 µM. Besides, in the data set on VEEV (TC-83), the “reduction in potency against VEEV relative to DENV” value is reported as 4-8 fold. Moreover, the EC50 in the data set on VEEV (TC-83) (setting [4]) was 3.6 µM; in the data set on DENV2 (setting [5]), 0.64 µM. The concentration for an effect of 90% (EC90) with VEEV (TC-83) (setting [4]) was over 10 µM; in the data set on DENV2 (setting [5]), 1.51 µM; in the data set on DENV2, 1.5 µM. Further, the CC50 in the data set “in vitro [2]” and in the data set “in vitro [3]” was over 10 µM each time.

In the case of `CC(C)(C)Oc1cccc2nc(N)nc(N)c12` [Compound 1], the EC50 in the data set on DENV is 0.0028 µM.

With `CCN(CC)CCNC(=O)c1c(C)[nH]c(/C=C2\C(=O)Nc3ccc(F)cc32)c1C` [Sunitinib, sunitinib, reference compound], the CC50 in the data set “in vitro [1]”, in “in vitro [2]” and in “in vitro [3]” was over 10 µM each time. In addition, the results for the EC50 with VEEV (TC-83) (setting [4]) and in the data set with DENV2 (setting [5]) were 4.4 µM and 1.1 µM, respectively. For the same molecule, the EC90 with VEEV (TC-83) (setting [4]) and with DENV2 (setting [5]) was over 10 µM in each case.

In the case of `Fc1cc2cn[nH]c2cc1Nc1ccnc2ccc(Br)cc12` [Compound 50, 6-bromo-N-(5-fluoro-1H-indazol-6-yl)quinolin-4-amine], the CC50 in the data set “in vitro [1]”, in “in vitro [2]” and in the data set “in vitro [3]” was over 10 µM each time. In addition, the “reduction in potency against VEEV relative to DENV” value with VEEV (TC-83) was 4-8 fold. For the same molecule, the EC50 with VEEV (TC-83) (setting [4]) worked out at 2.3 µM; with DENV2 (setting [5]), 0.69 µM. For the same molecule, the 90% effect concentration (EC90) was found to be 9.6 µM in the data set on VEEV (TC-83) (setting [4]), 3.98 µM in the data set on DENV2 (setting [5]) and 4 µM in the data set on DENV2.

With `COc1cccc(Nc2ccnc3ccc(C(F)(F)F)cc23)c1` [Compound 4], the CC50 in “in vitro [1]”, in the data set “in vitro [2]” and in the data set “in vitro [3]” was over 10 µM throughout. Besides, the concentration for a half-maximal effect (EC50) in the data set with VEEV (TC-83) (setting [4]) was over 10 µM; with DENV2 (setting [5]) it was 0.82 µM. For the same molecule, the figures for the EC90 with VEEV (TC-83) (setting [4]) and in the data set on DENV2 (setting [5]) were over 10 µM and 1.5 µM, respectively.

`COc1cc(Nc2c(C#N)cnc3ccc(I)cc23)cc(OC)c1OC` [Compound 3]: the concentration for a half-maximal effect (EC50) in the data set with DENV is 0.079 µM.

The values above are taken from paper PMC8659069, “Optimization of 4-Anilinoquinolines as Dengue Virus Inhibitors” (Molecules, 2021).
